Measured values taken from patent US8614327B2 (Vertex Pharmaceuticals Incorporated, priority 2004, dated 2013).
pEC50: −log10 of the molar value.

Molecular target: T1, ΔF508-CFTR (Homo sapiens, UniProt P13569, DEL508-508)
T1 construct: expressed in transfected cells
Assay: Membrane potential optical (FRET/VIPR) assay, identification of potentiator compounds
Type: cell-based
Conditions: Table 3, assay not given; for % Activity: relative efficacy
Procedure, shortened: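 NIH3T3 mouse fibroblasts stably expressing ΔF508-CFTR, temperature-corrected 24 h at 27° C., read on VIPR by FRET between CC2-DMPE and DiSBAC2(3). Potentiators identified in a double-addition format, first adding chloride-free (gluconate) medium with or without compound.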

T1 sequence (P13569 with tags, fused parts or gaps DEL508-508): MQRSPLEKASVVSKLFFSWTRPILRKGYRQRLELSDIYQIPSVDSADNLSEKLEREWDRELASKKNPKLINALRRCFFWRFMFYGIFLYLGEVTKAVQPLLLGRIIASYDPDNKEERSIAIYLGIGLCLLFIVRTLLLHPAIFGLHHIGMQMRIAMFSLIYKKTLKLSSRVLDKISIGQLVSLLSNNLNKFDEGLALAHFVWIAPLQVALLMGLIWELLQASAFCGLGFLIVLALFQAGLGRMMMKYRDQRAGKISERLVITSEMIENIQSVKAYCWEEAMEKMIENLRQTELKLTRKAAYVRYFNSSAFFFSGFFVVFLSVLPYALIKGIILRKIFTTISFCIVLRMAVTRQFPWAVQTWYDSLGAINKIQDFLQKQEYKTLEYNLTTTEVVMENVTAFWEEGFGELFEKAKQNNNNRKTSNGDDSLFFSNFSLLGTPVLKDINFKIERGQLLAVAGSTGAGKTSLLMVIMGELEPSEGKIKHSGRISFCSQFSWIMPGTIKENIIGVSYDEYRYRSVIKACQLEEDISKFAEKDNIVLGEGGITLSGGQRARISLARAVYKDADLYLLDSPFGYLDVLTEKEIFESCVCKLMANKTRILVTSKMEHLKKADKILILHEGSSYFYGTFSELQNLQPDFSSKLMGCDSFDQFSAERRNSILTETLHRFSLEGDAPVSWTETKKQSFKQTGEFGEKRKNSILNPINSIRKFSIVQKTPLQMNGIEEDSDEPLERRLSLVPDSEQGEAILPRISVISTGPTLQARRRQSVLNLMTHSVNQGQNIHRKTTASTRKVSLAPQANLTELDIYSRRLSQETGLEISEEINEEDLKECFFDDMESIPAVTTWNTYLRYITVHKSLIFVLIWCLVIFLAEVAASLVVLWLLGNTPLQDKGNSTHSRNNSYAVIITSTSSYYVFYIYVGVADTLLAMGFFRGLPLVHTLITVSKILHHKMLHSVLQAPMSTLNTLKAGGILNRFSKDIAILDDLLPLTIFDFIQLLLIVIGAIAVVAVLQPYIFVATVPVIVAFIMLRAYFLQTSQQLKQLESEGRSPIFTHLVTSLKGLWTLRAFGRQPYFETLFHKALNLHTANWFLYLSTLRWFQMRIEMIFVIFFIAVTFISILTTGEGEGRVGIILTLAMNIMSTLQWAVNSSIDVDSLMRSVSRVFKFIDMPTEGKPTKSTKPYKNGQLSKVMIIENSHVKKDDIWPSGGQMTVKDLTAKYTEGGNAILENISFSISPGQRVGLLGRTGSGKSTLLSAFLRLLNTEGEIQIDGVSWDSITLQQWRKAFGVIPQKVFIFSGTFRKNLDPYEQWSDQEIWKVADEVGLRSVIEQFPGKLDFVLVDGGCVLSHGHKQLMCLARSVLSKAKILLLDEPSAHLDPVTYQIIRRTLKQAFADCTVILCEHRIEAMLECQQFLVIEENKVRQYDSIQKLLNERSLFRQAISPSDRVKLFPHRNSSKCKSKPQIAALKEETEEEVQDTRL

| pEC50 | % Activity | Structure (SMILES) |
| --- | --- | --- |
| > 5.00 | ++ (between 25% to 100%) | O=C(Nc1c(Cl)cccc1Cl)c1c[nH]c2ccccc2c1=O [Compound 317, N-(2,6-dichlorophenyl)-4-oxo-1H-quinoline-3-carboxamide] |
| 4.60 to 5.00 | ++ (between 25% to 100%) | CC(C)CNC(=O)c1cc2cc[nH]c2cc1NC(=O)c1c[nH]c2ccccc2c1=O [Compound 343, N-[5-(Isobutylcarbamoyl)-1H-indol-6-yl]-4-oxo-1H-quinoline-3-carboxamide] |
| – | +++ (>100%) | O=C(Nc1ccccc1-c1cccc(F)c1)c1c[nH]c2ccccc2c1=O [Compound 277, N-[2-(3-fluorophenyl)phenyl]-4-oxo-1H-quinoline-3-carboxamide] |
| > 5.00 | ++ (between 25% to 100%) | COc1cc(NC(=O)c2c[nH]c3ccc(F)cc3c2=O)cc(C(F)(F)F)c1 [Compound 666, 6-fluoro-N-[3-methoxy-5-(trifluoromethyl)phenyl]-4-oxo-1H-quinoline-3-carboxamide] |
| > 5.00 | ++ (between 25% to 100%) | CCCc1ccccc1NC(=O)c1c[nH]c2ccccc2c1=O [Compound 16, 4-oxo-N-(2-propylphenyl)-1H-quinoline-3-carboxamide] |
| 4.60 to 5.00 | ++ (between 25% to 100%) | Cc1nc2cc(NC(=O)c3c[nH]c4ccccc4c3=O)ccc2s1 [Compound 44, N-(2-methylbenzothiazol-5-yl)-4-oxo-1H-quinoline-3-carboxamide] |
| 4.60 to 5.00 | ++ (between 25% to 100%) | NCc1ccccc1-c1ccc(NC(=O)c2c[nH]c3ccccc3c2=O)cc1 [Compound 86, N-[4-[2-(aminomethyl)phenyl]phenyl]-4-oxo-1H-quinoline-3-carboxamide] |
| > 5.00 | ++ (between 25% to 100%) | O=C(Nc1cccc2ccccc12)c1c[nH]c2ccccc2c1=O [Compound 350, N-(1-naphthyl)-4-oxo-1H-quinoline-3-carboxamide] |
| > 5.00 | ++ (between 25% to 100%) | O=C(Nc1ccccc1-c1cc2ccccc2[nH]1)c1c[nH]c2ccccc2c1=O [Compound 38, N-[2-(1H-indol-2-yl)phenyl]-4-oxo-1H-quinoline-3-carboxamide] |
| 4.22 to 4.60 | + (<25%) | O=C(Nc1cccc2ncccc12)c1c[nH]c2ccccc2c1=O [Compound 191, 4-oxo-N-(5-quinolyl)-1H-quinoline-3-carboxamide] |
| > 5.00 | ++ (between 25% to 100%) | Cc1cccc2[nH]cc(C(=O)Nc3cc4[nH]ccc4cc3C(F)(F)F)c(=O)c12 [Compound 661, 5-methyl-4-oxo-N-[5-(trifluoromethyl)-1H-indol-6-yl]-1H-quinoline-3-carboxamide] |
| > 5.00 | ++ (between 25% to 100%) | O=C(Nc1ccccc1-c1cc(F)ccc1F)c1c[nH]c2ccccc2c1=O [Compound 384, N-[2-(2,5-difluorophenyl)phenyl]-4-oxo-1H-quinoline-3-carboxamide] |
| > 5.00 | ++ (between 25% to 100%) | CC1(c2cc(F)c(NC(=O)c3c[nH]c4cccc(O)c4c3=O)cc2O)CCCCC1 [Compound 287, N-[2-fluoro-5-hydroxy-4-(1-methylcyclohexyl)-phenyl]-5-hydroxy-4-oxo-1H-quinoline-3-carboxamide] |
| 4.60 to 5.00 | ++ (between 25% to 100%) | COc1nc2ccccc2c(OC)c1C(=O)Nc1ccccc1C(C)(C)C [Compound 296, 2,4-dimethoxy-N-(2-tert-butylphenyl)-quinoline-3-carboxamide] |
| > 5.00 | ++ (between 25% to 100%) | COC(=O)c1ccc(-c2ccccc2NC(=O)c2c[nH]c3ccccc3c2=O)cc1 [Compound 166, 4-[2-[(4-oxo-1H-quinolin-3-yl)carbonylamino]phenyl]benzoic acid methyl ester] |
| > 5.00 | ++ (between 25% to 100%) | COc1cccc2[nH]cc(C(=O)Nc3ccc4cc[nH]c4c3)c(=O)c12 [Compound 479, N-(1H-indol-6-yl)-5-methoxy-4-oxo-1H-quinoline-3-carboxamide] |
| 4.22 to 4.60 | + (<25%) | COc1ccc(NC(=O)c2c[nH]c3ccccc3c2=O)cc1OC [Compound 122, N-(3,4-dimethoxyphenyl)-4-oxo-1H-quinoline-3-carboxamide] |
| > 5.00 | ++ (between 25% to 100%) | O=C(Nc1ccc2cc(C(F)(F)F)[nH]c2c1)c1c[nH]c2cccc(O)c2c1=O [Compound 693, 5-hydroxy-4-oxo-N-[2-(trifluoromethyl)-1H-indol-6-yl]-1H-quinoline-3-carboxamide] |

| pEC50 | % Activity | Structure (SMILES) |
| --- | --- | --- |
| > 5.00 | ++ (between 25% to 100%) | C[C@@H]1CCCN1c1ccc(NC(=O)c2c[nH]c3ccc(F)cc3c2=O)c(C(F)(F)F)c1 [Compound 684, (R)-6-fluoro-N-(4-(2-methylpyrrolidin-1-yl)-2-(trifluoromethyl)phenyl)-4-oxo-1,4-dihydroquinoline-3-carboxamide] |
| 4.60 to 5.00 | ++ (between 25% to 100%) | O=C(Nc1ccc2cc[nH]c2c1)c1cnc2c(F)cc(F)cc2c1O [Compound 377, 6,8-difluoro-4-hydroxy-N-(1H-indol-6-yl)quinoline-3-carboxamide] |
| > 5.00 | +++ (>100%) | COc1cccc(-c2ccccc2NC(=O)c2c[nH]c3ccccc3c2=O)c1 [Compound 283, N-[2-(3-methoxyphenyl)phenyl]-4-oxo-1H-quinoline-3-carboxamide] |
| > 5.00 | ++ (between 25% to 100%) | CC(C)c1ccc(NC(=O)c2c[nH]c3ccccc3c2=O)cc1N(C)C [Compound 117, N-(3-dimethylamino-4-isopropyl-phenyl)-4-oxo-1H-quinoline-3-carboxamide] |
| > 5.00 | ++ (between 25% to 100%) | CC(C)(C)c1cc(F)c(NC(=O)c2c[nH]c3ccc(F)cc3c2=O)cc1O [Compound 319, 6-fluoro-N-(2-fluoro-5-hydroxy-4-tert-butyl-phenyl)-4-oxo-1H-quinoline-3-carboxamide] |
| > 5.00 | ++ (between 25% to 100%) | Cc1ccc(N)cc1NC(=O)c1c[nH]c2ccccc2c1=O [Compound 94, N-(5-Amino-2-methyl-phenyl)-4-oxo-1H-quinoline-3-carboxamide] |
| 4.60 to 5.00 | ++ (between 25% to 100%) | CC(=O)Nc1ccc(C(C)(C)C)c(NC(=O)c2c[nH]c3ccccc3c2=O)c1 [Compound 316, N-(5-acetylamino-2-tert-butyl-phenyl)-4-oxo-1H-quinoline-3-carboxamide] |
| > 5.00 | + (<25%) | CC(CO)(CO)c1ccc(NC(=O)c2c[nH]c3ccc(F)cc3c2=O)cc1 [Compound 627, 6-fluoro-N-[4-[2-hydroxy-1-(hydroxymethyl)-1-methyl-ethyl]phenyl]-4-oxo-1H-quinoline-3-carboxamide] |
| 4.22 to 4.60 | + (<25%) | O=C(Nc1cnc2ccccc2c1)c1c[nH]c2ccccc2c1=O [Compound 75, 4-oxo-N-(3-quinolyl)-1H-quinoline-3-carboxamide] |
| > 5.00 | ++ (between 25% to 100%) | O=C(Nc1ccc(N2CC[C@@H](O)C2)cc1C(F)(F)F)c1c[nH]c2ccccc2c1=O [Compound 705, (R)-N-(4-(3-hydroxypyrrolidin-1-yl)-2-(trifluoromethyl)phenyl)-4-oxo-1,4-dihydroquinoline-3-carboxamide] |
| 4.22 to 4.60 | + (<25%) | O=C(Nc1ccc2nc[nH]c2c1)c1c[nH]c2ccccc2c1=O [Compound 414, N-(3H-benzoimidazol-5-yl)-4-oxo-1H-quinoline-3-carboxamide] |
| > 5.00 | ++ (between 25% to 100%) | CNc1cc(NC(=O)c2c[nH]c3ccccc3c2=O)ccc1C(C)(C)C [Compound 484, N-(3-methylamino-4-tert-butyl-phenyl)-4-oxo-1H-quinoline-3-carboxamide] |
| > 5.00 | ++ (between 25% to 100%) | CC1(c2cc(F)c(NC(=O)c3cnc4ccccc4c3O)cc2O)CCCCCCC1 [Compound 403, N-[2-fluoro-5-hydroxy-4-(1-methylcyclooctyl)-phenyl]-4-hydroxy-quinoline-3-carboxamide] |
| > 5.00 | ++ (between 25% to 100%) | COc1ccc(-c2ccccc2NC(=O)c2c[nH]c3ccccc3c2=O)cc1OC [Compound 436, N-[2-(3,4-dimethoxyphenyl)phenyl]-4-oxo-1H-quinoline-3-carboxamide] |
| > 5.00 | ++ (between 25% to 100%) | Cc1ccc(NC(=O)c2c[nH]c3ccccc3c2=O)c(F)c1 [Compound 289, N-(2-fluoro-4-methyl-phenyl)-4-oxo-1H-quinoline-3-carboxamide] |
| > 5.00 | ++ (between 25% to 100%) | CC(=O)c1ccc(-c2ccccc2NC(=O)c2c[nH]c3ccccc3c2=O)s1 [Compound 174, N-[2-(5-acetyl-2-thienyl)phenyl]-4-oxo-1H-quinoline-3-carboxamide] |
| > 5.00 | ++ (between 25% to 100%) | CN(c1ccc(F)cc1)S(=O)(=O)c1ccc2[nH]cc(C(=O)Nc3cc(O)c(C(C)(C)C)cc3C(C)(C)C)c(=O)c2c1 [Compound 137, 6-[(4-fluorophenyl)-methyl-sulfamoyl]-N-(5-hydroxy-2,4-ditert-butyl-phenyl)-4-oxo-1H-quinoline-3-carboxamide] |
| > 5.00 | ++ (between 25% to 100%) | O=C(Nc1ccc(N2CCC[C@@H]2C(=O)O)cc1C(F)(F)F)c1c[nH]c2ccccc2c1=O [Compound 698, (R)-1-[4-[(4-oxo-1H-quinolin-3-yl)carbonylamino]-3-(trifluoromethyl)phenyl]pyrrolidine-2-carboxylic acid] |
